A value given as a limit tells only on which side of the number the result lay.

Sequence of Kappa-type opioid receptor (P41144 whole entry): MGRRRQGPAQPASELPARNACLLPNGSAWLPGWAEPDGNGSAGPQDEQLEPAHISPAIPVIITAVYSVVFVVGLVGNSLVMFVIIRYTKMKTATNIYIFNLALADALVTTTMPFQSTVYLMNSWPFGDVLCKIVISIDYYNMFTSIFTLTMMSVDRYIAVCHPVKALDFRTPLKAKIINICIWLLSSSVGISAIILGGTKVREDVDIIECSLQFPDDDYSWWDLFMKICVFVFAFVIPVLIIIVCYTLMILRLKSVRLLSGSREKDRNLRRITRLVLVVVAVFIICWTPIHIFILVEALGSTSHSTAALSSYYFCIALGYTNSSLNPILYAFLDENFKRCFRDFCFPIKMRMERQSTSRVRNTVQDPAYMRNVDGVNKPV
Sequence of Mu-type opioid receptor (P97266 whole entry): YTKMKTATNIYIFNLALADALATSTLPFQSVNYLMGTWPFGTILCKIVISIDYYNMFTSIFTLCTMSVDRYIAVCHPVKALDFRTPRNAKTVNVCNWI

The first experiment has as its target Kappa-type opioid receptor (Cavia porcellus, UniProt P41144). In words: Displacement of [3H]U69593 from kappa opioid receptor in guinea pig cerebellum. In kind it is tissue-based. (Displacement assays read how much labelled ligand stays bound in the presence of the test substance.)
Regarding `Cc1occc1C(=O)/C=C/c1cc2c(n1C)[C@@H]1Oc3c(O)ccc4c3[C@@]13CCN(CC1CC1)[C@H](C4)[C@]3(O)C2`, the affinity corresponds to a Ki of 1.15 nM.

As for `Cn1c(CCC(=O)CCc2ccccc2)cc2c1[C@@H]1Oc3c(O)ccc4c3[C@@]13CCN(CC1CC1)[C@H](C4)[C@]3(O)C2`, the affinity corresponds to a Ki of 0.342 nM.

As to `Cn1c(/C=C/C(=O)Cc2ccccc2)cc2c1[C@@H]1Oc3c(O)ccc4c3[C@@]13CCN(CC1CC1)[C@H](C4)[C@]3(O)C2`, the Ki (usually the equilibrium dissociation constant of an inhibitor or competing ligand from its target) was determined as 1.13 nM.

Take `CCC/C=C/c1cc2c(n1C)[C@@H]1Oc3c(O)ccc4c3[C@@]13CCN(CC1CC1)[C@H](C4)[C@]3(O)C2`: affinity was put at a Ki of 7.38 nM.

Regarding `Cn1c(/C=C/C(=O)CCc2ccccc2)cc2c1[C@@H]1Oc3c(O)ccc4c3[C@@]13CCN(CC1CC1)[C@H](C4)[C@]3(O)C2`, the affinity, expressed as Ki, was 0.935 nM.

Consider `Cn1c(/C=C/c2ccccc2)cc2c1[C@@H]1Oc3c(O)ccc4c3[C@@]13CCN(CC1CC1)[C@H](C4)[C@]3(O)C2`, for which affinity was put at a Ki of 3.79 nM.

Molecule `CCCCCC(=O)/C=C/c1cc2c(n1C)[C@@H]1Oc3c(O)ccc4c3[C@@]13CCN(CC1CC1)[C@H](C4)[C@]3(O)C2` returned a Ki of 1.24 nM.

Molecule `Cn1c(/C=C/C(=O)c2ccccc2)cc2c1[C@@H]1Oc3c(O)ccc4c3[C@@]13CCN(CC1CC1)[C@H](C4)[C@]3(O)C2` returned a Ki of 0.467 nM.

A further experiment has as its target Mu-type opioid receptor (Cavia porcellus, UniProt P97266). In words: Displacement of [3H]DAMGO from mu opioid receptor in guinea pig forebrain.
Turning to `Cc1occc1C(=O)/C=C/c1cc2c(n1C)[C@@H]1Oc3c(O)ccc4c3[C@@]13CCN(CC1CC1)[C@H](C4)[C@]3(O)C2`, the affinity corresponds to a Ki of 6.2 nM.

`Cn1c(CCC(=O)CCc2ccccc2)cc2c1[C@@H]1Oc3c(O)ccc4c3[C@@]13CCN(CC1CC1)[C@H](C4)[C@]3(O)C2` displayed a Ki of 0.548 nM.

Molecule `Cn1c(/C=C/C(=O)Cc2ccccc2)cc2c1[C@@H]1Oc3c(O)ccc4c3[C@@]13CCN(CC1CC1)[C@H](C4)[C@]3(O)C2` gave a Ki of 6.58 nM.

Consider `CCC/C=C/c1cc2c(n1C)[C@@H]1Oc3c(O)ccc4c3[C@@]13CCN(CC1CC1)[C@H](C4)[C@]3(O)C2`, for which the Ki came out at 5.85 nM.

Regarding `Cn1c(/C=C/C(=O)CCc2ccccc2)cc2c1[C@@H]1Oc3c(O)ccc4c3[C@@]13CCN(CC1CC1)[C@H](C4)[C@]3(O)C2`, the Ki worked out at 6.89 nM.

Turning to `Cn1c(/C=C/c2ccccc2)cc2c1[C@@H]1Oc3c(O)ccc4c3[C@@]13CCN(CC1CC1)[C@H](C4)[C@]3(O)C2`, the Ki worked out at 1.76 nM.

Turning to `CCCCCC(=O)/C=C/c1cc2c(n1C)[C@@H]1Oc3c(O)ccc4c3[C@@]13CCN(CC1CC1)[C@H](C4)[C@]3(O)C2`, the affinity, expressed as Ki, was 15 nM.

As to `Cn1c(/C=C/C(=O)c2ccccc2)cc2c1[C@@H]1Oc3c(O)ccc4c3[C@@]13CCN(CC1CC1)[C@H](C4)[C@]3(O)C2`, the Ki came out at 3.76 nM.

Target in another experiment: not listed separately
Kind of experiment: Displacement of [3H]NTI from delta opioid receptor in guinea pig forebrain. More on the design: species or system Cavia porcellus.
As to `Cc1occc1C(=O)/C=C/c1cc2c(n1C)[C@@H]1Oc3c(O)ccc4c3[C@@]13CCN(CC1CC1)[C@H](C4)[C@]3(O)C2`, the Ki amounted to 1.47 nM.

For the molecule `Cn1c(CCC(=O)CCc2ccccc2)cc2c1[C@@H]1Oc3c(O)ccc4c3[C@@]13CCN(CC1CC1)[C@H](C4)[C@]3(O)C2`, the Ki turned out to be 1.59 nM.

Molecule `Cn1c(/C=C/C(=O)Cc2ccccc2)cc2c1[C@@H]1Oc3c(O)ccc4c3[C@@]13CCN(CC1CC1)[C@H](C4)[C@]3(O)C2` showed a Ki of 2.08 nM.

As to `CCC/C=C/c1cc2c(n1C)[C@@H]1Oc3c(O)ccc4c3[C@@]13CCN(CC1CC1)[C@H](C4)[C@]3(O)C2`, the affinity corresponds to a Ki of 6.58 nM.

In the case of `Cn1c(/C=C/C(=O)CCc2ccccc2)cc2c1[C@@H]1Oc3c(O)ccc4c3[C@@]13CCN(CC1CC1)[C@H](C4)[C@]3(O)C2`, the Ki turned out to be 1.73 nM.

Regarding `Cn1c(/C=C/c2ccccc2)cc2c1[C@@H]1Oc3c(O)ccc4c3[C@@]13CCN(CC1CC1)[C@H](C4)[C@]3(O)C2`, the IC50 (as a rule, the concentration at which inhibition is half-maximal) is more than 1000 nM.

Molecule `CCCCCC(=O)/C=C/c1cc2c(n1C)[C@@H]1Oc3c(O)ccc4c3[C@@]13CCN(CC1CC1)[C@H](C4)[C@]3(O)C2` had a Ki of 3.55 nM.

In turn, `Cn1c(/C=C/C(=O)c2ccccc2)cc2c1[C@@H]1Oc3c(O)ccc4c3[C@@]13CCN(CC1CC1)[C@H](C4)[C@]3(O)C2` displayed a Ki of 3.74 nM.

The target in another experiment is Opioid receptor (mu and kappa) (Cavia porcellus) (UniProt P41144+P97266). In words: Selectivity ratio of Ki for mu opioid receptor in guinea pig forebrain to Ki for kappa opioid receptor in guinea pig cerebellum. In kind it is tissue-based.
Sequence of Opioid receptor (mu and kappa) (Cavia porcellus) (P41144 whole entry, looked up): as the sequence (P41144 whole entry) above
Sequence of Opioid receptor (mu and kappa) (Cavia porcellus) (P97266 whole entry, looked up): as the sequence (P97266 whole entry) above
For `Cc1occc1C(=O)/C=C/c1cc2c(n1C)[C@@H]1Oc3c(O)ccc4c3[C@@]13CCN(CC1CC1)[C@H](C4)[C@]3(O)C2`, the Ratio Ki was determined as 5.4.

`Cn1c(CCC(=O)CCc2ccccc2)cc2c1[C@@H]1Oc3c(O)ccc4c3[C@@]13CCN(CC1CC1)[C@H](C4)[C@]3(O)C2`: the Ratio Ki is 1.6.

Consider `Cn1c(/C=C/C(=O)Cc2ccccc2)cc2c1[C@@H]1Oc3c(O)ccc4c3[C@@]13CCN(CC1CC1)[C@H](C4)[C@]3(O)C2`, for which the Ratio Ki was found to be 5.8.

Regarding `CCC/C=C/c1cc2c(n1C)[C@@H]1Oc3c(O)ccc4c3[C@@]13CCN(CC1CC1)[C@H](C4)[C@]3(O)C2`, the Ratio Ki came to 0.8.

As for `Cn1c(/C=C/C(=O)CCc2ccccc2)cc2c1[C@@H]1Oc3c(O)ccc4c3[C@@]13CCN(CC1CC1)[C@H](C4)[C@]3(O)C2`, the Ratio Ki came out at 7.4.

As to `Cn1c(/C=C/c2ccccc2)cc2c1[C@@H]1Oc3c(O)ccc4c3[C@@]13CCN(CC1CC1)[C@H](C4)[C@]3(O)C2`, the Ratio Ki turned out to be 0.5.

Consider `CCCCCC(=O)/C=C/c1cc2c(n1C)[C@@H]1Oc3c(O)ccc4c3[C@@]13CCN(CC1CC1)[C@H](C4)[C@]3(O)C2`, for which the Ratio Ki turned out to be 12.

Take `Cn1c(/C=C/C(=O)c2ccccc2)cc2c1[C@@H]1Oc3c(O)ccc4c3[C@@]13CCN(CC1CC1)[C@H](C4)[C@]3(O)C2`: the Ratio Ki turned out to be 8.1.

The next experiment is filed under the species Cavia porcellus. In words: Selectivity ratio of Ki for delta opioid receptor in guinea pig forebrain to Ki for kappa opioid receptor in guinea pig cerebellum. Format: tissue-based.
`Cc1occc1C(=O)/C=C/c1cc2c(n1C)[C@@H]1Oc3c(O)ccc4c3[C@@]13CCN(CC1CC1)[C@H](C4)[C@]3(O)C2`: the Ratio Ki worked out at 1.3.

Take `Cn1c(CCC(=O)CCc2ccccc2)cc2c1[C@@H]1Oc3c(O)ccc4c3[C@@]13CCN(CC1CC1)[C@H](C4)[C@]3(O)C2`: the Ratio Ki was 4.6.

As for `Cn1c(/C=C/C(=O)Cc2ccccc2)cc2c1[C@@H]1Oc3c(O)ccc4c3[C@@]13CCN(CC1CC1)[C@H](C4)[C@]3(O)C2`, the Ratio Ki was 1.8.

In the case of `CCC/C=C/c1cc2c(n1C)[C@@H]1Oc3c(O)ccc4c3[C@@]13CCN(CC1CC1)[C@H](C4)[C@]3(O)C2`, the Ratio Ki stood at 0.9.

For `Cn1c(/C=C/C(=O)CCc2ccccc2)cc2c1[C@@H]1Oc3c(O)ccc4c3[C@@]13CCN(CC1CC1)[C@H](C4)[C@]3(O)C2`, the Ratio Ki was determined as 1.9.

`CCCCCC(=O)/C=C/c1cc2c(n1C)[C@@H]1Oc3c(O)ccc4c3[C@@]13CCN(CC1CC1)[C@H](C4)[C@]3(O)C2`: the Ratio Ki worked out at 2.9.

On to `Cn1c(/C=C/C(=O)c2ccccc2)cc2c1[C@@H]1Oc3c(O)ccc4c3[C@@]13CCN(CC1CC1)[C@H](C4)[C@]3(O)C2`, for which the Ratio Ki was determined as 8.

In another experiment the test system is Mus musculus. Kind of experiment: Antinociceptive activity in sc dosed mouse assessed as effect on acetic acid-induced writhing. Format: functional. (In general: In writhing tests, fewer writhes than in controls are read as antinociception.)
On to `CCCCCC(=O)/C=C/c1cc2c(n1C)[C@@H]1Oc3c(O)ccc4c3[C@@]13CCN(CC1CC1)[C@H](C4)[C@]3(O)C2`, for which the Activity result is “Dose-dependent effect” and the ED50 (in general, the dose that gives a 50% effect, or the effect in half of the subjects) was 5.87 mg/kg.
